{
  "source": "patent US20220163532A1",
  "about": "“NUCLEAR-DERIVED EXOSOMES AND METHODS OF USE THEREOF” (Board of Regents, The University of Texas System, priority 2019, published 2022)",
  "key": {"[1]": {"system": "OVCAR-5 ovarian cancer model", "assay": "MN quantification in tumor nodules of OVCAR-5 intraperitoneal model after topotecan", "format": "in vivo, mouse", "conditions": "topotecan 7.5 mg/kg intraperitoneally, single dose, euthanized 48 hours later; vs vehicle control", "method": "In vivo experiments. For the in vivo mouse experiments, female athymic (NCr-nude) mice were purchased from Taconic Biosciences. Mice were cared for in accordance with the American Association for Assessment and Accreditation of Laboratory Animal Care and the U.S. Public Health Service policy on Humane Care and Use of Laboratory Animals. All studies and experiments that were performed were supervised and approved by the MD Anderson Institutional Animal Care and Use Committee. Mice were 10 to 15 weeks old at the time of tumor intraperitoneal cell injections. OVCAR-5 luciferase—labeled cells (1×10^6) were injected intraperitoneally into each mouse. […]\nHuman tumor samples and MN quantification. […] For MN identification and quantification, the Vectra Polaris platform (PerkinElmer) was used, and inForm software (PerkinElmer) was used to systematically count MN. After tissue segmentation, a number of nuclei in views were calculated by the cell segmentation process, and MN was defined as over 0.85 roundness and less than approximately 3 μm size (95 pixels in 96 dpi images), as shown in FIG. 3D.\nTo validate these findings in vivo, the OVCAR-5 ovarian cancer model, which represents disseminated peritoneal disease, was used. […] To calculate the number of MN, multiple IF images of tumor slides were taken, and MN were systematically counted by the Vectra—inForm Image Analysis System (PerkinElmer) (FIG. 3D)."}, "[2]": {"system": "OVCAR-5 and OVCAR-8 cells", "assay": "MN quantification in ovarian cancer cells treated with genotoxic drugs (IF, Lamin A/C)", "format": "cell-based, human", "conditions": "topotecan 10 nM or olaparib 20 μM, vs DMSO", "method": "IF experiments and MN quantification. Cells were plated at a density of 5×10^4 cells on sterile, 0.17-mm-thick coverslips (12-548-A, Thermo Fisher Scientific) placed at the bottom of six-well plates. The next day, cells were treated for 24 hours with either vehicle control dimethyl sulfoxide (DMSO; 1:1000 dilution; D2650, Sigma-Aldrich), 20 μM olaparib (O-9201, LC Laboratories), or 10 nM topotecan (T2705-50MG, Sigma-Aldrich). After 24 hours, the cells were washed with PBS and refed with the appropriate cell culture medium to grow for another 48 hours, for a total time of 72 hours after initial plating on the coverslips.\nThe drug-treated cells were first washed three times with PBS, fixed with 4% paraformaldehyde (PFA; 50-980-487, Thermo Fisher Scientific) diluted in PBS, and incubated at RT for 15 min with light rocking. […] Last, cells on coverslips were then washed four times with PBS and mounted on slides using ProLong Diamond Antifade Mountant (P36961, Thermo Fisher Scientific) and imaged with a Leica fluorescence microscope (Leica DM4000 M LED; Leica Microsystems) or an Andor Revolution XDi WD Spinning Disk Confocal microscope. For MN quantification, the number of MN in each 40× field was counted using 10 fields per sample. […]"}},
  "data": [
    {"smiles": "CC[C@@]1(O)C(=O)OCc2c1cc1n(c2=O)Cc2cc3c(CN(C)C)c(O)ccc3nc2-1", "note": "[topotecan]", "values": [
      {"measurement": "MN-positive cell percentages in tumor", "setting": "[1]", "result": "trend toward an increased"},
      {"measurement": "number of MN", "setting": "[2]", "result": "increased significantly"}
    ]}
  ]
}
